Data from US9187467B2, “2-phenyl benzothiazole linked imidazole compounds as potential anticancer agents and process for the preparation thereof” (Council of Scientific and Industrial Research, priority 2012, dated 2015).
Read-outs that look alike come from different tables or passages of the source.

Experiments:
SN12C = assay: SRB anticancer assay, renal; type: cell-based, human; parameters: Log10GI50: unit not given here; details: for GI50: Homo sapiens, 48 h
[1] = test system: MCF-7 (Breast carcinoma) cells; assay: Cell cycle distribution by flow cytometry (FACS); type: cell-based; details: MCF-7 cells, 2 μM, 24h
Experimental: FIG. 1 represents FACS analysis of cell cycle distribution of MCF-7 cells after treatment with compounds CA-4, 21a, 21d, 4c, 6d, 6e, 6f, 7d, 7h and 7j at 2 μM concentration for 24h and control cells are the cells treated with DMSO (0.25%).
In order to investigate the mechanism underlying the anti-proliferative effect of the compounds the cell cycle distribution was analyzed in K562 (Leukemia) and MCF-7 (Breast carcinoma) cell lines by flow cytometry. Compounds CA-4, 21a, 21d, 4c, 6d, 6e, 6f, 7d, 7h and 7j have shown 1.72%, 14%, 12%, 14%, 12%, 14%, 14%, 16%, 16% &12% in K562 cells and 49.63%, 21%, 20%, 18%, 21%, 21%, 21%, 24%, 23% and 23% in MCF-7 cell line respectively. […] Thus compound 7d was considered for further studies (FIG. 1).

ACHN = assay: SRB anticancer assay, renal; type: cell-based, human; parameters: Log10GI50: unit not given here; details: for GI50: Homo sapiens, 48 h
NCI-H23 = assay: SRB anticancer assay, non-small lung; type: cell-based, human; details: for GI50: Homo sapiens, NCI-H23, 48 h
NCI/ADR-RES = assay: SRB anticancer assay, ovarian; type: cell-based, human; parameters: Log10GI50: unit not given here; details: for GI50: Homo sapiens, NCI/ADR-RES, 48 h; for Log10GI50: present compounds
NCI-H322M = assay: SRB anticancer assay, non-small lung; type: cell-based, human; details: Homo sapiens, 48 h
NCI-H226 = assay: SRB anticancer assay, non-small lung; type: cell-based, human; details: Homo sapiens, NCI-H226, 48 h
OVCAR-5 = assay: SRB anticancer assay, ovarian; type: cell-based, human; details: Homo sapiens, OVCAR-5, 48 h
HCT-116 = assay: SRB anticancer assay, colon; type: cell-based, human; details: Homo sapiens, HCT-116, 48 h
UACC-257 = assay: SRB anticancer assay, melanoma; type: cell-based, human; details: for GI50: Homo sapiens, UACC-257, 48 h
SR = assay: SRB anticancer assay, leukemia; type: cell-based, human; details: Homo sapiens, 48 h
KM12 = assay: SRB anticancer assay, colon; type: cell-based, human; details: Homo sapiens, KM12, 48 h
SF-268 = assay: SRB anticancer assay, CNS; type: cell-based, human; parameters: Log10GI50: unit not given here; details: for GI50: Homo sapiens, SF-268, 48 h
SK-MEL-5 = assay: SRB anticancer assay, melanoma; type: cell-based, human; details: Homo sapiens, SK-MEL-5, 48 h
OVCAR-3 = assay: SRB anticancer assay, ovarian; type: cell-based, human; parameters: Log10GI50: unit not given here; details: for GI50: Homo sapiens, OVCAR-3, 48 h
MDA-MB-231/ATCC = assay: SRB anticancer assay, breast; type: cell-based, human; parameters: Log10GI50: unit not given here; details: for GI50: Homo sapiens, MDA-MB-231, 48 h, 48 h, read-out: GI50
T-47D = assay: SRB anticancer assay, breast; type: cell-based; details: Homo sapiens, T47D, 48 h
NCI-H460 = assay: SRB anticancer assay, non-small lung; type: cell-based, human; details: Homo sapiens, NCI-H460, 48 h
SF-539 = assay: SRB anticancer assay, CNS; type: cell-based, human; parameters: Log10GI50: unit not given here; details: for GI50: Homo sapiens, SF-539, 48 h
U251 = assay: SRB anticancer assay, CNS; type: cell-based, human; parameters: Log10GI50: unit not given here; details: for GI50: Homo sapiens, U-251, U251, 48 h
A498 = assay: SRB anticancer assay, renal; type: cell-based, human; parameters: Log10GI50: unit not given here; details: for GI50: Homo sapiens, A498, 48 h
OVCAR-8 = assay: SRB anticancer assay, ovarian; type: cell-based, human; parameters: Log10GI50: unit not given here; details: for GI50: Homo sapiens, OVCAR-8, 48 h
SK-MEL-28 = assay: SRB anticancer assay, melanoma; type: cell-based, human; parameters: Log10GI50: unit not given here; details: for GI50: Homo sapiens, SK-MEL-28, 48 h
SK-OV-3 = assay: SRB anticancer assay, ovarian; type: cell-based, human; details: Homo sapiens, SK-OV-3, 48 h
RXF 393 = assay: SRB anticancer assay, renal; type: cell-based, human; parameters: Log10GI50: unit not given here; details: for GI50: Homo sapiens, RXF 393, 48 h
SNB-19 = assay: SRB anticancer assay, CNS; type: cell-based, human; parameters: Log10GI50: unit not given here; details: for GI50: Homo sapiens, SNB-19, 48 h
BT-549 = assay: SRB anticancer assay, breast; type: cell-based, human; details: Homo sapiens, BT-549, 48 h
K-562 = assay: SRB anticancer assay, leukemia; type: cell-based, human; details: Homo sapiens, K562; K-562, 48 h
OVCAR-4 = assay: SRB anticancer assay, ovarian; type: cell-based, human; details: Homo sapiens, OVCAR-4, 48 h
UO-31 = assay: SRB anticancer assay, renal; type: cell-based, human; parameters: Log10GI50: unit not given here; details: for GI50: Homo sapiens, UO-31, 48 h
HL-60 (TB) = assay: SRB anticancer assay, leukemia; type: cell-based, human; parameters: Log10GI50: unit not given here; details: for GI50: Homo sapiens, HL-60, 48 h
[2] = MDA-MB-231/ATCC (row head MDA-MB-)
[3] = row head printed 231/ATCC (second line of MDA-MB-231/ATCC)

COc1cc(OC)cc(-c2cncn2-c2ccc(-c3nc4cc(OC)cc(OC)c4s3)cc2)c1 [Compound 6d, 2-(4-(5-(3,5-Dimethoxyphenyl)-1H-imidazol-1-yl)phenyl)-5,7-dimethoxybenzo[d]thiazole]
GI50 (SN12C): > 100 µM
cells in G2/M phase [1]: 21%
GI50 (ACHN): > 100 µM
GI50 (NCI-H23): 10.3 µM
GI50 (NCI/ADR-RES): 2.58 µM
GI50 (NCI-H322M): > 100 µM
GI50 (NCI-H226): 18.5 µM
GI50 (OVCAR-5): > 100 µM
GI50 (HCT-116): 4.93 µM
GI50 (UACC-257): > 100 µM
GI50 (SR): 3.3 µM
GI50 (KM12): 4.52 µM
GI50 (SF-268): 11.3 µM
GI50 (SK-MEL-5): 3.29 µM
GI50 (OVCAR-3): 2.87 µM
GI50 (MDA-MB-231/ATCC; [2]): 9.01 µM
GI50 (MDA-MB-231/ATCC; [3]): 5.02 µM
GI50 (T-47D): 3.17 µM
GI50 (NCI-H460): 4.41 µM
GI50 (SF-539): 5.76 µM
GI50 (U251): 4.76 µM
GI50 (A498): 3.15 µM
GI50 (OVCAR-8): 14.5 µM
GI50 (SK-MEL-28): > 100 µM
GI50 (SK-OV-3): 4.69 µM
GI50 (RXF 393): 6.58 µM
GI50 (SNB-19): > 100 µM
GI50 (BT-549): 5.77 µM
GI50 (K-562): 3.22 µM

COc1cc(OC)c2sc(-c3ccc(-n4cncc4-c4ccc(OC)c(OC)c4)cc3)nc2c1 [Compound 6e, 2-(4-(5-(3,4-Dimethoxyphenyl)-1H-imidazol-1-yl)phenyl)-5,7-dimethoxybenzo[d]thiazole]
GI50 (SN12C): > 100 µM
cells in G2/M phase [1]: 21%
GI50 (OVCAR-4): 4.21 µM
GI50 (ACHN): > 100 µM
GI50 (NCI-H23): > 100 µM
GI50 (NCI/ADR-RES): > 100 µM
GI50 (NCI-H322M): > 100 µM
GI50 (NCI-H226): 6.44 µM
GI50 (OVCAR-5): > 100 µM
GI50 (HCT-116): 5.48 µM
GI50 (UACC-257): > 100 µM
GI50 (SR): 3.03 µM
GI50 (UO-31): 31.7 µM
GI50 (KM12): 6.8 µM
GI50 (SF-268): 9.96 µM
GI50 (SK-MEL-5): 3.61 µM
GI50 (OVCAR-3): 3.85 µM
GI50 (MDA-MB-231/ATCC; [2]): 28.4 µM
GI50 (T-47D): 4.15 µM
GI50 (NCI-H460): 6.06 µM
GI50 (SF-539): > 100 µM
GI50 (U251): 9.19 µM
GI50 (A498): 2.15 µM
GI50 (OVCAR-8): 21.2 µM
GI50 (SK-MEL-28): > 100 µM
GI50 (SK-OV-3): > 100 µM
GI50 (SNB-19): > 100 µM
GI50 (BT-549): 3.78 µM
GI50 (K-562): 5.88 µM
GI50 (HL-60 (TB)): 3.09 µM

COc1cc2nc(-c3ccc(-n4cncc4-c4ccc(N)cc4)cc3)sc2c(OC)c1OC [Compound 7h, 4-(1-(4-(5,6,7-Trimethoxybenzo[d]thiazol-2-yl)phenyl)-1H-imidazol-5-yl)benzenamine]
GI50 (SN12C): 8.95 µM
Log10GI50 (SN12C; present compounds): −5.05
cells in G2/M phase [1]: 23%
GI50 (OVCAR-4): 3.6 µM
GI50 (ACHN): 8.56 µM
Log10GI50 (ACHN; present compounds): −5.07
GI50 (NCI-H23): 3.87 µM
Log10GI50 (NCI-H23; NCI-H23, present compounds): −5.41 log10(M)
GI50 (NCI/ADR-RES): 1.61 µM
Log10GI50 (NCI/ADR-RES; NCI/ADR-RES (row head NCI/ADR-)): −5.79
Log10GI50 (NCI/ADR-RES; listed as head printed RES (second line of NCI/ADR-RES)): −4.93
GI50 (NCI-H322M): 2.07 µM
GI50 (NCI-H226): 4.73 µM
GI50 (OVCAR-5): 34.3 µM
GI50 (HCT-116): 3.81 µM
GI50 (UACC-257): 6.4 µM
Log10GI50 (UACC-257; UACC-257, present compounds): −5.19 log10(M)
GI50 (SR): 1.4 µM
GI50 (UO-31): 1.55 µM
Log10GI50 (UO-31; UO-31, present compounds): −5.81
GI50 (SF-268): 12.3 µM
Log10GI50 (SF-268; SF-268, present compounds): −4.91
GI50 (SK-MEL-5): 2.74 µM
GI50 (OVCAR-3): 2.73 µM
Log10GI50 (OVCAR-3; OVCAR-3, present compounds): −5.56
GI50 (MDA-MB-231/ATCC; [2]): 3.65 µM
GI50 (MDA-MB-231/ATCC; [3]): 5.36 µM
Log10GI50 (MDA-MB-231/ATCC; MDA-MB-231/ATCC, present compounds): −5.44
GI50 (T-47D): 1.82 µM
GI50 (NCI-H460): 5.13 µM
GI50 (SF-539): 7.14 µM
Log10GI50 (SF-539; SF-539, present compounds): −5.15
GI50 (U251): 3.84 µM
Log10GI50 (U251; U251, present compounds): −5.42
Log10GI50 (A498; A498, present compounds): −5.67
GI50 (A498): 2.13 µM
GI50 (OVCAR-8): 4.23 µM
Log10GI50 (OVCAR-8; OVCAR-8, present compounds): −5.37
GI50 (SK-MEL-28): > 100 µM
Log10GI50 (SK-MEL-28; SK-MEL-28, present compounds): >−4.0
GI50 (SK-OV-3): 11.7 µM
GI50 (RXF 393): 4.41 µM
Log10GI50 (RXF 393; RXF 393, present compounds): −5.36
GI50 (SNB-19): 12.3 µM
Log10GI50 (SNB-19; SNB-19, present compounds): −4.91
GI50 (BT-549): 1.59 µM
Log10GI50 (HL-60 (TB); HL-60(TB), present compounds): −6.00
GI50 (HL-60 (TB)): 0.989 µM

COc1cc(OC)c2sc(-c3ccc(-n4cncc4-c4cc(OC)c(OC)c(OC)c4)cc3)nc2c1 [Compound 6f, 5,7-Dimethoxy-2-(4-(5-(3,4,5-trimethoxyphenyl)-1H-imidazol-1-yl)phenyl)benzo[d]thiazole]
GI50 (SN12C): > 100 µM
cells in G2/M phase [1]: 21%
GI50 (OVCAR-4): 3.25 µM
GI50 (ACHN): 6.67 µM
GI50 (NCI-H23): 6.15 µM
GI50 (NCI/ADR-RES): 5.65 µM
GI50 (NCI-H322M): > 100 µM
GI50 (OVCAR-5): > 100 µM
GI50 (HCT-116): 3.92 µM
GI50 (UACC-257): > 100 µM
GI50 (SR): 3.24 µM
GI50 (UO-31): 2.27 µM
GI50 (KM12): 4.62 µM
GI50 (SK-MEL-5): 2.46 µM
GI50 (OVCAR-3): 3.26 µM
GI50 (MDA-MB-231/ATCC; [2]): 3.51 µM
GI50 (T-47D): 3.27 µM
GI50 (NCI-H460): 4.67 µM
GI50 (SF-539): 8.59 µM
GI50 (U251): 4.15 µM
GI50 (A498): 1.83 µM
GI50 (OVCAR-8): > 100 µM
GI50 (SK-OV-3): > 100 µM
GI50 (RXF 393): 2.8 µM
GI50 (SNB-19): > 100 µM
GI50 (BT-549): 3.35 µM
GI50 (K-562): 3.83 µM
GI50 (HL-60 (TB)): 3.3 µM
